Experimental data from US5175146A, “Synthetic calcitonin peptides” (Vical, Inc., priority 1990, dated 1992).
Starred links: 1 amine or outer side, 2 acyl side, 3 side chain; linkers in the order of their positions; H or OH if unused. Positions of bridges follow the written chain, without caps; N, C: chain ends. Residues, ends and D or L forms follow the SMILES beside them. Suc = O=C(CCC(=O)[*:2])[*:1]

Experiments:
[1] = tested on: Male rats (Sprague Dawley); experiment: Hypocalcemic activity: serum Ca++ decrease in rats after subcutaneous injection; format: in vivo; conditions: rat serum
Method: Calcitonins lower the blood calcium of immature rats by inhibiting bone resorption. Their potency can be assessed by determining the micrograms of peptide required to reduce the serum calcium by ten percent. The results of in vivo tests of the biological activities of synthetic calcitonin peptides of the invention are shown in Example 37.
This activity was measured as follows: Male rats (Sprague Dawley) weighing approximately 100 grams were fasted overnight. Peptides according to the invention, comprising various potency-enhancing modifications, were dissolved in pH 7.4 PBS buffer at a concentration range of 0.001 microgram to about 100 microgram per ml. The rats were anesthetized with Metophane10, weighed and injected subcutaneously with the peptide solutions in a dose of from 0.001 to about 100 microgram per kilogram of body weight. […] Calcium-lowering potencies of the synthetic peptides can be calculated in International units (IU) per mg as described by the method of M. Kumar et al., J. Endocrinology 33:469-475 (1964). According to this test, 10 IU is defined as the amount of peptide necessary for lowering Ca++ concentration by 10% in 100 gram rats one hour after subcutaneous injection. Serum Ca++ levels in the rat after subcutaneous injection of various peptides are summarized below: […]

[2] = parameters: species or system rabbits; conditions: rabbit, in vivo
Method: Peptides of the formula I when administered intranasally show hypocalcemic effects in animals. In order to determine their bioavailability, the effect of hypocalcemic peptides administered intranasally were compared with those administered by intravenous injection, as described below. Nasal powdery formulations containing 100 IU per 30 mg of dry powder were prepared substantially as described in U.S. Pat. No. 4,613,500. Peptides were administered intranasally at a dose of 2.8 IU/kg or intravenously at a dose of 1.75 IU/kg to rabbits. Blood samples were withdrawn before administering the peptides and 0.5, 1, 2, 4, and 6 hours after administration, and serum calcium levels determined. The ratios of areas under the curve of hypocalcemic effect (0 to 6 hours) after nasal and intravenous administration are calculated.

| Ratio of Nasal:i.v. Bioavailability [2] [%] | Molecule | Ca++ Decrease ([1]; dose 1 ug/kg s.c., 1 hr) [mg/dL] | Ca++ Decrease ([1]; dose 10 ug/kg s.c., 1 hr) [mg/dL] | Ca++ Decrease ([1]; dose 100 ug/kg s.c., 1 hr) [mg/dL] | other results |
| --- | --- | --- | --- | --- | --- |
| – | [(Ac0AOA-SerThr)2 -Lys-7]-cCT(7-32) | 2.29 | 2.45 | 2.34 | Ca++ Decrease ([1]; dose 0.1 ug/kg s.c., 1 hr): 0.42 mg/dL; Ca++ Decrease ([1]; dose 0.4 ug/kg s.c., 1 hr): 0.45 mg/dL |
| 28.0 | CC[C@H](C)[C@H](NC(=O)[C@H](C)NC(=O)[C@@H](NC(=O)[C@H](CCC(N)=O)NC(=O)[C@@H]1CCCN1C(=O)[C@H](Cc1ccccc1)NC(=O)[C@@H](NC(=O)[C@H](Cc1c[nH]cn1)NC(=O)[C@H](Cc1ccccc1)NC(=O)[C@H](CCCCN)NC(=O)[C@H](CC(N)=O)NC(=O)[C@H](CC(C)C)NC(=O)[C@H](CC(=O)O)NC(=O)[C@H](CCC(N)=O)NC(=O)[C@@H](NC(=O)[C@H](CC(C)C)NC(=O)[C@@H](NC(=O)CNC(=O)[C@H](CC(C)C)NC(=O)[C@H](CC(C)C)NC(=O)[C@@H]1CSSC[C@H](N)C(=O)NCC(=O)N[C@@H](CC(N)=O)C(=O)N[C@@H](CC(C)C)C(=O)N[C@@H](CO)C(=O)N[C@@H]([C@@H](C)O)C(=O)N1)[C@@H](C)O)[C@@H](C)O)[C@@H](C)O)[C@@H](C)O)C(=O)NCC(=O)N[C@H](C(=O)NCC(=O)N[C@@H](C)C(=O)N1CCC[C@H]1C(N)=O)C(C)C [[Leu-8,12,16]-hCT, [Leu^8,12,16]-hCT] (H-CGNLSTCLLGTLTQDLNKFHTFPQTAIGVGAP-NH2; disulfide 1-7) | – | – | – | – |
| 28.6 | CC(C)C[C@H](NC(=O)[C@H](CC(C)C)NC(=O)[C@@H]1CSSC[C@H](N)C(=O)N[C@@H](CO)C(=O)N[C@@H](CC(N)=O)C(=O)N[C@@H](CC(C)C)C(=O)N[C@@H](CO)C(=O)N[C@@H]([C@@H](C)O)C(=O)N1)C(=O)NCC(=O)N[C@@H](CCCCN)C(=O)N[C@@H](CC(C)C)C(=O)N[C@@H](CO)C(=O)N[C@@H](CCC(N)=O)C(=O)N[C@@H](CCC(=O)O)C(=O)N[C@@H](CC(C)C)C(=O)N[C@@H](Cc1c[nH]cn1)C(=O)N[C@@H](CCCCN)C(=O)N[C@@H](CC(C)C)C(=O)N[C@@H](CCC(N)=O)C(=O)N[C@H](C(=O)N[C@@H](Cc1ccc(O)cc1)C(=O)N1CCC[C@H]1C(=O)N[C@@H](CCCNC(=N)N)C(=O)N[C@H](C(=O)N[C@@H](CC(=O)O)C(=O)N[C@H](C(=O)NCC(=O)N[C@@H](C)C(=O)NCC(=O)N[C@H](C(=O)N1CCC[C@H]1C(N)=O)[C@@H](C)O)C(C)C)[C@@H](C)O)[C@@H](C)O [(Leu^8)-eCT] (H-CSNLSTCLLGKLSQELHKLQTYPRTDVGAGTP-NH2; disulfide 1-7) | – | – | – | – |
| 37.5 | [(LeuCys)^1, Leu^8 ]-eCT | 3.35 | – | – | Ca++ Decrease ([1]; dose 0.03 ug/kg s.c., 1 hr): 1.24 mg/dL |
| – | [(ADA-Ser)-5,Ala-7]-cCT(5-32) | 0.19 | 2.83 | – | Ca++ Decrease ([1]; dose 1 ug/kg s.c., 3 hr): 0.14 mg/dL; Ca++ Decrease ([1]; dose 3 ug/kg s.c., 1 hr): 0.33 mg/dL; Ca++ Decrease ([1]; dose 3 ug/kg s.c., 3 hr): 0.21 mg/dL; Ca++ Decrease ([1]; dose 10 ug/kg s.c., 3 hr): 2.98 mg/dL; Ca++ Decrease ([1]; dose 10 ug/kg s.c., 6 hr): 2.10 mg/dL |
| – | [(D-Ala-Ada-Ser)^5, Ala^7, des-^22 ]-Avian Calcitonin (5-32) | 0.32 | 1.42 | 1.82 | – |
| 14.3 | CC(C)C[C@H](NC(=O)[C@H](CC(C)C)NC(=O)[C@@H]1CCCCNC(=O)CCC(=O)N[C@@H](CO)C(=O)N[C@@H](CC(N)=O)C(=O)N[C@@H](CC(C)C)C(=O)N[C@@H](CO)C(=O)N[C@@H]([C@@H](C)O)C(=O)N1)C(=O)NCC(=O)N[C@@H](CCCCN)C(=O)N[C@@H](CC(C)C)C(=O)N[C@@H](CO)C(=O)N[C@@H](CCC(N)=O)C(=O)N[C@@H](CCC(=O)O)C(=O)N[C@@H](CC(C)C)C(=O)N[C@@H](Cc1c[nH]cn1)C(=O)N[C@@H](CCCCN)C(=O)N[C@@H](CC(C)C)C(=O)N[C@@H](CCC(N)=O)C(=O)N[C@H](C(=O)N[C@@H](Cc1ccc(O)cc1)C(=O)N1CCC[C@H]1C(=O)N[C@@H](CCCNC(=N)N)C(=O)N[C@H](C(=O)N[C@@H](CC(=O)O)C(=O)N[C@H](C(=O)NCC(=O)N[C@@H](C)C(=O)NCC(=O)N[C@H](C(=O)N1CCC[C@H]1C(N)=O)[C@@H](C)O)C(C)C)[C@@H](C)O)[C@@H](C)O (SNLSTKLLGKLSQELHKLQTYPRTDVGAGTP-NH2; linker N-6 via Suc) | – | – | – | – |
| – | [(SerThr)2 -Lys-7]-cCT(7-32) | 2.09 | 2.75 | 2.75 | – |
| – | [(Chx-Ser)^5, Ala^7, des-^22 ]-Avian Calcitonin (5-32) [[(CHX-Ser)-5,Ala-7,des-22]-cCT(5-32)] | 0.32 | 1.42 | 1.82 | – |
| 17.4 | [(Chx-Ser-Thr)2 -Lys^7, Leu^8 ]-Eel Calcitonin (7-32) [[(ChxSerThr)2 -Lys^7, Leu^8]-eCT(7-32)] | 2.42 | – | – | Ca++ Decrease ([1]; dose 0.01 ug/kg s.c., 1 hr): 0.13 mg/dL; Ca++ Decrease ([1]; dose 0.03 ug/kg s.c., 1 hr): 0.24 mg/dL; Ca++ Decrease ([1]; dose 0.1 ug/kg s.c., 1 hr): 0.39 mg/dL; Ca++ Decrease ([1]; dose 0.32 ug/kg s.c., 1 hr): 1.09 mg/dL |
| – | [(Oleyl-Ser)-5,Ala-7]-cCT(5-32) | 0.47 | 0.60 | 1.15 | – |
